Broadly, the IC50 is the concentration needed to halve the response being measured.

SMILES strings stand for the structures.

The target in the experiment is recombinant CD73 (Homo sapiens (Human), UniProt P21589). In words: Assay 1: Inhibition of the CD73 enzyme in vitro (0.5 nM CD73, 30 min room temperature, Malachite Green). It counts as biochemical. The settings on record: 0.5 nM CD73, 30 minutes at room temperature. In a few lines: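 Soluble recombinant human CD73; reaction run 30 min at room temperature, then Malachite Green added. Absorbance at 630 nm read after 5 min, with released inorganic phosphate quantified against a phosphate standard curve.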
Sequence of recombinant CD73 (P21589 27-547): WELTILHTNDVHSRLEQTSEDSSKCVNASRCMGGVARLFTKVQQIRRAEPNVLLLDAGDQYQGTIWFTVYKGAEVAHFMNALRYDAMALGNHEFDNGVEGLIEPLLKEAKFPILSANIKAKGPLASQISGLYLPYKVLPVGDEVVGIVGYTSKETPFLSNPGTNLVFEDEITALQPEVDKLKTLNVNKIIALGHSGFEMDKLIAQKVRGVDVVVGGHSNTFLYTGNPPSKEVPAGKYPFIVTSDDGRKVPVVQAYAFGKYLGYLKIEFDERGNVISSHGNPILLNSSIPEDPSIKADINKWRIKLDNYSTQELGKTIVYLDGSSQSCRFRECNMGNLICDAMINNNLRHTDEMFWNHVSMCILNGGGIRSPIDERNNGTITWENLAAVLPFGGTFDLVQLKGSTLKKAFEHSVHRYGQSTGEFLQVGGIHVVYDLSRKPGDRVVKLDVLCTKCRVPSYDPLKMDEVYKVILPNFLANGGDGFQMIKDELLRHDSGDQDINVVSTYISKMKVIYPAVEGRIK
In the case of `C#C[C@@]1(O)[C@@H](COC(C(=O)O)S(=O)(=O)c2ccccc2)O[C@@H](n2cnc3c(NC4CCCC4)nc(Cl)nc32)[C@@H]1O` (stereo partly drawn) [Example 129, 2-(((2R,3S,4R,5R)-5-(2-chloro-6-(cyclopentylamino)-9H-purin-9-yl)-3-ethynyl-3,4-dihydroxytetrahydrofuran-2-yl)methoxy)-2-(phenylsulfonyl)acetic acid], the IC50 came out at 1.58 µM.
`C#C[C@@]1(O)[C@@H](COC(Cc2cccc(C(=O)O)c2)(C(=O)O)c2cscn2)O[C@@H](n2cnc3c(N)nc(Cl)nc32)[C@@H]1O` (stereo partly drawn) [Example 182, 3-(2-(((2R,3S,4R,5R)-5-(6-amino-2-chloro-9H-purin-9-yl)-3-ethynyl-3,4-dihydroxytetrahydrofuran-2-yl)methoxy)-2-carboxy-2-(thiazol-4-yl)ethyl)benzoic acid]: the IC50 is 0.024 µM.
Regarding `C#C[C@@]1(O)[C@@H](COC(C(=O)NO)c2cscn2)O[C@@H](n2cnc3c(N)nc(Cl)nc32)[C@@H]1O` (single isomer, unassigned) [Example 186], the concentration for half-maximal inhibition (IC50) came to 8.83 µM.
For the compound `C#C[C@@]1(O)[C@@H](COC(C(=O)O)C(=O)N2CCCC2)O[C@@H](n2cnc3c(NC4CCCC4)nc(Cl)nc32)[C@@H]1O` (stereo partly drawn) [Example 114, 2-(((2R,3S,4R,5R)-5-(2-chloro-6-(cyclopentylamino)-9H-purin-9-yl)-3-ethynyl-3,4-dihydroxytetrahydrofuran-2-yl)methoxy)-3-oxo-3-(pyrrolidin-1-yl)propanoic acid], the IC50 came to 0.177 µM.
Regarding `C#C[C@@]1(O)[C@@H](COC(Cc2ccccc2)(C(=O)O)C(=O)O)O[C@@H](n2cnc3c(NC4CCOCC4)nc(Cl)nc32)[C@@H]1O` [Example 60, 2-benzyl-2-(((2R,3S,4R,5R)-5-(2-chloro-6-((tetrahydro-2H-pyran-4-yl)amino)-9H-purin-9-yl)-3-ethynyl-3,4-dihydroxytetrahydrofuran-2-yl)methoxy)malonic acid], the IC50 came out at 0.003 µM.
The figure for `C#C[C@@]1(O)[C@@H](CO[C@](Cc2ccccc2)(C(=O)O)c2cscn2)O[C@@H](n2cnc3c(NC)nc(Cl)nc32)[C@@H]1O` [Example 187, (S)-2-(((2R,3S,4R,5R)-5-(2-chloro-6-(methylamino)-9H-purin-9-yl)-3-ethynyl-3,4-dihydroxytetrahydrofuran-2-yl)methoxy)-3-phenyl-2-(thiazol-4-yl)propanoic acid] is 0.01 µM.
The figure for `C#C[C@@]1(O)[C@@H](COC(C(=O)NO)c2cscn2)O[C@@H](n2cnc3c(N)nc(Cl)nc32)[C@@H]1O` (single isomer, unassigned) [Example 185] is 11.7 µM.
In the case of `C#C[C@@]1(O)[C@@H](COC(Cc2ccccc2)(C(=O)O)C(=O)O)O[C@@H](n2cnc3c(NCCN(CC)CC)nc(Cl)nc32)[C@@H]1O` [Example 61, 2-benzyl-2-(((2R,3S,4R,5R)-5-(2-chloro-6-((2-(diethylamino)ethyl)-amino)-9H-purin-9-yl)-3-ethynyl-3,4-dihydroxytetrahydrofuran-2-yl)methoxy)-malonic acid], the IC50 was determined as 0.0015 µM.
For the compound `C#C[C@@]1(O)[C@@H](COC(Cc2ccccc2)(C(=O)O)c2csc(C(=O)O)n2)O[C@@H](n2cnc3c(N)nc(Cl)nc32)[C@@H]1O` (stereo partly drawn) [Example 196, 4-(1-(((2R,3S,4R,5R)-5-(6-amino-2-chloro-9H-purin-9-yl)-3-ethynyl-3,4-dihydroxytetrahydrofuran-2-yl)methoxy)-1-carboxy-2-phenylethyl)thiazole-2-carboxylic acid], the IC50 came out at 0.082 µM.
Turning to `C#C[C@@]1(O)[C@@H](CO[C@@](Cc2ccccc2)(C(=O)O)c2nnn[nH]2)O[C@@H](n2cnc3c(N)nc(Cl)nc32)[C@@H]1O` [Example 192, (R)-2-(((2R,3S,4R,5R)-5-(6-amino-2-chloro-9H-purin-9-yl)-3-ethynyl-3,4-dihydroxytetrahydrofuran-2-yl)methoxy)-3-phenyl-2-(1H-tetrazol-5-yl)propanoic acid], the IC50 worked out at 0.025 µM.
The figure for `C#CCC(OC[C@H]1O[C@@H](n2cnc3c(N)nc(Cl)nc32)[C@H](O)[C@@]1(O)C#C)(C(=O)O)c1cscn1` (stereo partly drawn) [Example 184, 2-(((2R,3S,4R,5R)-5-(6-amino-2-chloro-9H-purin-9-yl)-3-ethynyl-3,4-dihydroxytetrahydrofuran-2-yl)methoxy)-2-(thiazol-4-yl)pent-4-ynoic acid] is 0.102 µM.

For the origin of these results see US11078228B2, “Ectonucleotidase inhibitors and methods of use thereof” (Calithera Biosciences, Inc., priority 2018, dated 2021).
